Results: patent publication US20090047246A1, “NOVEL INHIBITORS OF HEPATITIS C VIRUS REPLICATION” (InterMune, Inc., priority 2007, published 2009)

Key:
HCV NS3/4a protease = HCV NS3/4a protease activity, effect of additives on reaction rate (Assay Example 1); format: biochemical, HCV genotype 1b-K2040; settings: base buffer 50 mM Tris-HCl pH 7.5, 15% glycerol; for Conclusion (effect of additive on NS3/4a protease reaction rate): 0.5 μM FRET substrate, additive at the concentrations tested
Procedure: In order to identify reaction conditions that give high levels of HCV NS3/4a protease activity, several additives were analyzed to determine their effect on reaction rate. The base buffer used was 50 mM Tris-HCl, pH 7.5 containing 15% glycerol. The FRET-based assay substrate used (sequence: Ac-DE-Dap(QXL520)-EE-Abu-ψ-[COO]-AS-Cys(5-FAMsp)-NH2) was obtained from Anaspec, Inc. (San Jose, Calif.). The NS4a surrogate peptide used (KGSVVIVGRIILSGRK) was obtained from Midwest Biotech (Fishers, Ind.). The NS3 enzyme used was the benchmark wild-type full length enzyme derived from HCV genotype 1b-K2040. The reaction rate for the NS3 catalyzed hydrolysis of 0.5 μM substrate in base buffer was used as a reference.

NS3 Helicase = NS3 Helicase (Hepatitis C virus genotype 1b, UniProt P26663); test: Activity of NS3 Helicase in Presence of Detergent with or without LDAO (Table A); format: biochemical
Procedure: In another embodiment, at least one detergent is added to a solution containing NS3 to improve the helicase activity. In some embodiments, the detergent is selected from the group consisting of LDAO, Tween 20, Triton X100, Pluronic F127, CHAPS, β-octyl glucoside, laurylmaltoside, N-lauroylsarcosine, and hexadecyltrimethylammonium bromide. In a preferred embodiment, LDAO is added. In a more preferred embodiment, at least one additional detergent in added to the solution containing NS3 and LDAO. In some embodiments, the additional detergent(s) is/are selected from the group consisting of Tween 20, Triton X100, Pluronic F127, CHAPS, β-octyl glucoside, laurylmaltoside, N-lauroylsarcosine, and hexadecyltrimethylammonium bromide. Table A represents the helicase activity of NS3 in the presence of LDAO and at least one additional detergent; and, in the absence of LDAO and the presence of at least one other detergent.

NS4a surrogate peptide = test system: T1, NS4a surrogate peptide
T1 sequence: KGSVVIVGRIILSGRK

[1] = plus LDAO 0.6 mM, detergent 0.020%
[2] = plus LDAO 0.6 mM, detergent 0.020%, control = 100
[3] = plus LDAO 0.6 mM, detergent 0.075%
[4] = plus LDAO 0.6 mM, detergent 0.075%, control = 100

NS3 Helicase, sequence (P26663 1027-1657): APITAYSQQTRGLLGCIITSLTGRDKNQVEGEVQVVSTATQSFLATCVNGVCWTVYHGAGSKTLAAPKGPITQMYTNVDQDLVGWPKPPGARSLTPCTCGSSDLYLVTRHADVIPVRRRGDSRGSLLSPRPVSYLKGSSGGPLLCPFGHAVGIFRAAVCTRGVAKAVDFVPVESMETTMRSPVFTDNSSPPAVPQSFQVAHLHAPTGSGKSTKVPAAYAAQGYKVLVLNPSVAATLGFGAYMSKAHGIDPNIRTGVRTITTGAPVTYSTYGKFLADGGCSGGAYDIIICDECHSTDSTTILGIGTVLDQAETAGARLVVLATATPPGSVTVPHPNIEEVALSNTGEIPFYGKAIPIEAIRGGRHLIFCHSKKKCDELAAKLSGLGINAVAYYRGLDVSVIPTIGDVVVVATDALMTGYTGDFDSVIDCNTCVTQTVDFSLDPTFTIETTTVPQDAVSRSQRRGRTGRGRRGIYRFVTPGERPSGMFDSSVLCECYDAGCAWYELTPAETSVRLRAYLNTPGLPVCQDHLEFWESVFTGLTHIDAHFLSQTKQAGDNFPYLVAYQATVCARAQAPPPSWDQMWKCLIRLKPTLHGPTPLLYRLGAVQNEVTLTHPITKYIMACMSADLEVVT

Molecule | Conclusion (effect of additive on NS3/4a protease reaction rate) (HCV NS3/4a protease) | Slope (NS3 Helicase; [1]) [mP/min] | Activity (NS3 Helicase; [2]) [%] | Slope (NS3 Helicase; [3]) [mP/min] | Activity (NS3 Helicase; [4]) [%] | further results
C[C@H](CCC(=O)NCCC[N+](C)(C)CCCS(=O)(=O)[O-])[C@H]1CC[C@H]2[C@@H]3[C@H](O)C[C@@H]4C[C@H](O)CC[C@]4(C)[C@H]3C[C@H](O)[C@]12C [CHAPS] | CHAPS at 2 mM increased activity | −0.77 | 126 | −1.16 | 190 | 
O[C@@H](CS)[C@@H](O)CS [DTT] | 10 and 30 mM DTT improve activity. |  |  |  |  | 
CCCCCCCCCCCC[N+](C)(C)[O-] [LDAO, lauryl (dimethyl)-amine oxide] | LDAO at 0.6 mM raised activity |  |  |  |  | Increase of NS3/4a protease activity (HCV NS3/4a protease; LDAO at 0.6 mM): significantly (~10-fold)
[Cl-].[Na+] [NaCl] | NaCl detrimental to activity |  |  |  |  | 
O=C(O)CCP(CCC(=O)O)CCC(=O)O [TCEP] | detrimental to activity |  |  |  |  | 
CCCCCCCCO[C@@H]1O[C@H](CO)[C@@H](O)[C@H](O)[C@H]1O [β-octyl glucoside] |  | −0.45 | 74 | −0.38 | 62 | 
KGSVVIVGRIILSGRK [NS4a peptide, "The NS4a surrogate peptide used (…) was obtained from Midwest Biotech", reference compound] | Best activity at 25 and 2500 μM |  |  |  |  | 
NS3 enzyme, benchmark wild-type full length enzyme derived from HCV genotype 1b-K2040 |  |  |  |  |  | NS3/4a protease activity (reaction rate of NS3 catalyzed hydrolysis of 0.5 µM FRET substrate) (NS4a surrogate peptide): Best activity at 25 and 2500 µM
Pluronic F127 |  | −1.14 | 300 | −1.29 | 339 | Activity (NS3 Helicase; no LDAO, detergent 0.020%): 126%; Slope (NS3 Helicase; no LDAO, detergent 0.020%): −0.48 mP/min; Activity (NS3 Helicase; no LDAO, detergent 0.075%): 155%; Slope (NS3 Helicase; no LDAO, detergent 0.075%): −0.59 mP/min
Triton X100 |  | −1.51 | 397 | −1.19 | 313 | Activity (NS3 Helicase; no LDAO, detergent 0.020%): 66%; Slope (NS3 Helicase; no LDAO, detergent 0.020%): −0.25 mP/min; Activity (NS3 Helicase; no LDAO, detergent 0.075%): 53%; Slope (NS3 Helicase; no LDAO, detergent 0.075%): −0.2 mP/min
Triton X-100 | Improvement in activity at 12 μM |  |  |  |  | 
